In paper PMC7275090, “Mode of action of teixobactins in cellular membranes” (Nature Communications, 2020):
pKd: −log10 of the molar value. Bridge positions count the residues as written; N and C are the ends. Square brackets hold non-standard residues; d marks the D form. Ends that are not written are not given here. d(aIle) = CC[C@H](C)[C@@H](N)C(=O)O; dNMeF = CN[C@H](Cc1ccccc1)C(=O)O

Tests used:
[1] = ssNMR 15N T1rho relaxation (dynamics of bound teixobactin), mDAP-Lipid II; conditions: 950 MHz, 60 kHz MAS
Method: Relaxation studies: ^1H-detected ^15N T1rho relaxation experiments were carried out at 950 and 700 MHz magnetic field, respectively, using 60 kHz MAS[51]. The ^15N transverse magnetization decay was probed with a ^15N spinlock field of 17.5 kHz. For the bulk, we measured the intensity of the most intense signal at ~8.80 ^1H ppm. T1rho trajectories were fit to single exponentials.
Lipid I or II-doped multi-laminar vesicle preparations: DOPC or DOPG lipids were mixed with Lipid I or II in 1:1 MeOH:CHCl3 at the final Lipid I or II molar ratio (0–4 mol%/mol). The mixtures were dried and the lipid films were hydrated by vortexing with 2 mL of a teixobactin solution in 40 mM phosphate, 25 mM NaCl, pH 7.0.
SSNMR samples: MLVs were collected by centrifugation (20,000×g) and loaded into ssNMR rotors. For 3.2 mm rotors, we used 800 nmol of antibiotic with unlabelled Lipid II or I, while we used 400 nmol with labelled Lipid II. For 1.3 mm rotors, samples contained 200 nmol of antibiotic for unlabelled Lipid II or I, while we used 100 nmol for labelled Lipid II. For all ssNMR samples, we used 4 mol%/mol Lipid II or I in the MLVs.

[2] = 2D 15N1H ssNMR of bound teixobactin, mDAP-Lipid II vs Lys-Lipid II; assay type: binding; conditions: DOPC liposomes
Method: (§1) 1D, 2D, and 3D ^1H-detected experiments were performed at 60 kHz MAS frequency using magnetic fields of 16.4, 18.8, and 22.2 T (700, 800, and 950 MHz ^1H-frequency) at temperatures of 305 K. All ^1H-detected experiments were dipolar-based. PISSARRO low-power decoupling[47] was used during detection periods. 2D ^13C^13C spin diffusion experiments were performed with PARISxy[48] recoupling at 950 MHz and 15.5, 17, or 18 kHz MAS frequency at 270 K temperature using mixing times of 25–1000 ms. SPINAL64[49] was used in detection periods. The 2D scalar ^13C^13C TOBSY[50] experiment was acquired at 950 MHz with 8 kHz MAS at 295 K temperature with 6 ms ^13C–^13C magnetization transfer time. Chemical shift assignments were performed using standard ^1H-detected 3D CANH and CONH experiments[36],[51] in combination with 2D ^13C^13C PARISxy[48] experiments with different magnetization transfer times (see Supplementary Tables 1 and 2). DNP-enhanced 2D ^13C^13C spin diffusion (20 ms mixing time) ssNMR experiments[52] were carried out using a 263 GHz microwave frequency, 400 MHz ^1H frequency setup (Bruker Biospin) at 100 K temperature and 8.5 kHz MAS.
(§2) Lipid I or II-doped multi-laminar vesicle preparations: DOPC or DOPG lipids were mixed with Lipid I or II in 1:1 MeOH:CHCl3 at the final Lipid I or II molar ratio (0–4 mol%/mol). […]

[3] = Isothermal titration calorimetry: LUVs containing Lys-Lipid II titrated into [R4L10]-teixobactin; assay type: binding; conditions: neutral DOPC membranes, LUVs 2% (mol/mol) Lys-Lipid II, citrate phosphate buffer pH ~6, 37 °C, 65 μM peptide in cell; read-out: equilibrium dissociation constant Kd
Method: Preparation of liposomes: For ITC measurements large unilamellar vesicles (LUVs) containing Lys-Lipid II were prepared by incorporating 2% (mol/mol) of Lys-Lipid II in DOPC from the stock solution. The lipids were dried by nitrogen stream and hydrated with 10 mM HEPES, 150 mM NaCl, pH 7.5 buffer to a lipid-phosphate concentration of ~20 mM. LUVs were obtained after 10 rounds of extrusion through 200 nm membrane filters (Whatman Nuclepore, Track-Etch Membranes). The liposomes were dialysed to citrate phosphate buffer (100 mM NaCl, 50 mM citric acid, 100 mM Na2HPO4, pH ~6). Anionic LUVs were prepared by mixing 25% (mol/mol) DOPG and 75% (mol/mol) DOPC and then incorporating 2% (mol/mol) Lys-Lipid II. All other steps were the same as for zwitterionic LUVs.
ITC was performed with the Low Volume NanoITC (Waters LLC, New Castle, DE, USA) to determine interaction between LUVs and [R4L10]-teixobactin. [R4L10]-teixobactin was diluted in a citrate phosphate buffer (100 mM NaCl, 50 mM citric acid, 100 mM Na2HPO4, pH ~6) to a final concentration of 65 μM. Samples were degassed before use. The chamber was filled with 164 μL of [R4L10]-teixobactin, and the LUVs were titrated into the chamber at a rate of 1.96 μL/300 s with a stirring rate of 300 rpm. Experiments were performed at 37 °C and analysed using the Nano Analyse Software (Waters LLC). […]

[4] = 2D 15N1H ssNMR of bound teixobactin, Lys-Lipid I; assay type: binding; conditions: DOPC liposomes; clear signal changes in the ring motif
Method: as §1, §2

[5] = Pyrene excimer fluorescence of pyrene-labelled Lipid II in DOPC LUVs (oligomerisation); conditions: 0.5 mol% pyrene-Lipid II, pH 8.0, 20 °C
Method: The oligomerisation of fluorescent pyrene-labelled Lipid II was observed upon binding of [R4L10]-teixobactin. DOPC LUVs containing 0.5 (mol%) of pyrene-labelled Lipid II in buffer (10 mM Tris–Cl, 100 mM NaCl, pH 8.0) were prepared as described above. All fluorescence experiments were performed with a Cary Eclipse (FL0904M005) fluorometer. All samples (1.0 mL) were continuously stirred in a 10 × 4-mm quartz cuvette and kept at 20 °C. [R4L10]-teixobactin was titrated to the LUVs. Pyrene fluorescence was followed with spectral recordings between 360 and 550 nm (λex 350 nm, bandwidth 5 nm). The emission at 380 and 495 nm was recorded and averaged over 50 s, to obtain the values for the monomer and excimer intensity, respectively, to determine the excimer over monomer ratio for all conditions. […]
398, and 417 nm. Moreover, pyrene can display a characteristic fluorescence peak at longer wavelengths (490 nm), which occurs only when two pyrene rings reside within 10 Å of each other and form an excited state dimer, which known as an excimer.2 Source data are provided as a Source Data file. a) Fluorescence spectra of pyrene-labelled Lipid II symmetrically in large unilamellar vesicles (LUVs) at increasing concentrations of [R4L10]-teixobactin. […]
c) Quantification of the excimer over monomer ratio as a function of the pyrene-labelled Lipid II concentration. […]

[6] = Fluorescence microscopy of GUVs doped with NBD-labelled Lipid II (Lipid II clustering); conditions: 1 μM peptide, 4 h
Method: GUVs were prepared using the electroformation method. The GUV cell is a self-assembled system which consists of a 5 mm-thick Teflon plate which is aligned with two titanium electrodes in a closed Teflon chamber. 1.5 μL of 0.5 mM DOPC doped with NBD-labelled Lipid II (0.1 mol%) were brushed on the electrodes. Next, the chamber was filled with 350 μL 0.1 M sucrose solution; the electrodes dipped in and then connected to a power supply which generated a sine wave of voltage 2.5 V at a frequency of 10 Hz for 90 min. Each microscopy slide (μ-slide 8 well, Ibidi) was covered with 350 μL BSA solution (1 mg/mL). To detach the GUVs from the electrodes the power supply was changed to square wave of voltage 2 V at a frequency of 2 Hz for 15 min. The slides were immersed in 300 μL 0.1 mM glucose solution to which 80 μL of GUVs were added. These were incubated for 4 h with 1 μM [R4L10]-teixobactin and observed by confocal microscopy. Anionic GUVs were prepared using a homemade electroformation setup with ITO coverslips (18 × 18 mm, 15–30 Ω, SPI supplies). On both slips, 3 μL of a chloroform–methanol (1:1, vol/vol) solution containing 1 mM of a 3:1 mixture of DOPC:DOPG (mol/mol) and 0.1 mol% NBD-labelled Lipid II was deposited and dried in a vacuum desiccator. With these slips, the electroformation chamber was assembled and filled with 0.1 M sucrose solution. The GUV cell was connected to the power supply and an alternating current applied (1 V, 10 Hz). GUV formation was carried out overnight.
Microscopy: GUVs were imaged using Zeiss LSM 880 with ×63/1.2NA glycerol objective lens. The NBD label appeared green upon excitation by the 488 nm laser. The emission range for detection was 530–545 nm (λem peak = 539 nm). The brightfield images were used for detection and location of the GUVs without a fluorescent signal and also as a control to observe their shape.

[7] = bound to mDAP-Lipid II in DOPC (DAP-LII_PC)
[8] = bound to mDAP-Lipid II in DOPG (DAP-LII_PG)

D-Arg4-Leu10-teixobactin ([dNMeF]IS[dR][d(aIle)]IS[dT]ALI; ester 8-C; also: 13C,15N labels at Ile2, Ser3, Ile6, Ser7 and one Ala (residue not fully stated)) [[R4L10]-teixobactin]
Bulk 15N R1rho [1, 7]: 22.15 s⁻¹
Bulk 15N T1rho [1, 7]: 45.14 ms
Bulk 15N R1rho [1, 8]: 36.17 s⁻¹
Bulk 15N T1rho [1, 8]: 27.65 ms
ssNMR spectra bound to Lys-Lipid II vs mDAP-Lipid II [2]: gave the same ssNMR spectra
pKd [3]: 6.77
binding to Lys-Lipid I [4]: also able to bind Lys-Lipid I
speed of Lipid II oligomerization after addition [5]: virtually immediately
Lipid II segregation into clusters on GUVs ([6]; DOPC GUVs, 0.1 mol% NBD-Lipid II): Lipid II segregated into μm-sized clusters
vesicle integrity and morphology after incubation ([6]; DOPC GUVs, brightfield images, cluster sites show slight membrane deformations): morphology is maintained
Clustering of Lipid II in anionic membranes ([6]; anionic GUVs 1:3 DOPG:DOPC (mol/mol), 0.1 mol% NBD-Lipid II): clearly visible
